{"source": "patent US20060252683A1", "about": "“Preparation of a peptide compound (SYRAPRO-2000) and its use for the activation of protein phosphatase-2A1 enzyme” (priority 2005, published 2006)", "key": {"protein phosphatase-1": {"molecular_target": "T1, protein phosphatase-1 (Oryctolagus cuniculus, UniProt P62139)", "T1 construct": "Protein phosphatase-1 was purified from rabbit skeletal muscle; from tissue; host or cells: rabbit skeletal muscle", "T1 sequence (P62139 whole entry)": "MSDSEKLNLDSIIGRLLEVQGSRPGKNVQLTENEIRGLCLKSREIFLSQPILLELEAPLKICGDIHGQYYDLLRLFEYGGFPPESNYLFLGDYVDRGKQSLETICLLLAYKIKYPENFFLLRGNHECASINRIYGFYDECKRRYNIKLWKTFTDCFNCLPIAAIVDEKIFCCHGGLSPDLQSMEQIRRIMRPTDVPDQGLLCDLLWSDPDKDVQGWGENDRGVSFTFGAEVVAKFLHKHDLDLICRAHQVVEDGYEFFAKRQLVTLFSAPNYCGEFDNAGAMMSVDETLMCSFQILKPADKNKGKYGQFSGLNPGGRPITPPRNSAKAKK", "assay": "Protein phosphatase-1 assay", "format": "biochemical, rabbit", "details": "various concentrations", "description": "Protein phosphatase-1 (squares), protein phosphatase-2A1 (circles), protein phosphatase-2B (triangles) and protein phosphatase-2C (stars) were assayed in the presence of various concentrations of HIV-1 Vpr^71-96. 100 percent protein phosphatase activity is equivalent to 0.005 unit. Similar results were obtained in 3 independent experiments.\n^32P-labeled phosphorylase a was prepared by phosphorylation of phosphorylase b with phosphorylase kinase as described in (Cohen 1988). ^32P-labeled casein was prepared by phosphorylation of casein with protein kinase A as described in (Tung 1986). Protein phosphatase-1 was purified from rabbit skeletal muscle as described in (Cohen 1988). Protein phosphatase-1 inhibitor-2 was purified from rabbit skeletal muscle as described in (Yang 1981). Protein phosphatase-2A0 and protein phosphatase-2A1 from pig brain and from pig liver were purified as described in (Tung 1985). Protein phosphatase-2A0 and protein phosphatase-2A1 from pig adipose tissue were highly purified by successive chromatography of pig subcutaneous adipose tissue extracts on DEAE Sepharose, Poly-L-lysine Agarose, Sephacryl S-300 HR and thiophosphorylase-a-Sepharose-4B as described in (Tung 1985). Protein phosphatase-2B was purified from pig brain as described in (Tung 1986). […]"}, "[1]": {"assay": "Cell viability (tryphan blue) and cell death of Jurkat cells", "format": "cell-based, human", "details": "human, Jurkat cells (CD4+ T cell line), 1000 nM, four hours of incubation, read-out: treated cells non viable (tryphan blue staining)", "description": "(§1) Panel A, Jurkat cells (a CD^4+ T cell line) were grown in RPMI 1640 and 10% (v/v) fetal bovine serum. Cells (10^6 cells per ml) were treated (+) or not (−) with 1000 nM SYRAPRO-2000. Cell viability was then determined by counting the cells following tryphan blue staining after 1, 2 and 4 hours of incubation. Panel B, Following treatment with SYRAPRO-2000 for 1, 2 and 4 hours as indicated, Jurkat cells (10^6/ml) were washed with RPMI plus 2% fetal bovine serum and then deposited onto glass slides by cytospinning. Phase contrast images were then obtained with white light emission on a Zeiss Axioplan 2 imaging universal microscope (Thornwood, N.Y.). […]\n(§2) Jurkat cells are grown in RPMI 1680 medium supplemented with 5% (v/v) fetal bovine serum and antibiotics and treated or not with 1 μM of SYRAPRO-2000 for 1 hour, 2 hours and 4 hours. Following treatment with SYRAPRO-2000, cell viability are then determined by counting the cells following tryphan blue staining. […]\n(§3) Following treatment of cells with SYRAPRO-2000, cells were examined by phase contrast microscopy or by fluorescent microscopy following staining with FITC labeled annexin V (apoptotic cell death) and propidium iodide (oncolytic cell death). Cells were analyzed on a Zeiss Axioplan 2 imaging universal microscope (Thornwood, N.Y.). […] Green (FITC labeled annexin V) and red (propidium iodide) fluorescence images were obtained. […]"}, "Jurkat cells": {"tested_on": "Jurkat cells", "assay": "Cell viability (tryphan blue) and cell death of Jurkat cells", "format": "cell-based, human", "details": "1000 nM", "description": "as §1, §2, §3"}}}
{"molecule": "CC[C@H](C)[C@H](NC(=O)[C@H](CCCNC(=N)N)NC(=O)[C@H](CO)NC(=O)[C@H](Cc1c[nH]cn1)NC(=O)[C@H](CCCNC(=N)N)NC(=O)[C@H](CS)NC(=O)CNC(=O)[C@@H](NC(=O)[C@H](CCCNC(=N)N)NC(=O)[C@H](Cc1ccccc1)NC(=O)[C@@H](N)Cc1c[nH]cn1)[C@@H](C)CC)C(=O)NCC(=O)N[C@H](C(=O)N[C@H](C(=O)N[C@@H](CCCNC(=N)N)C(=O)N[C@@H](CCC(N)=O)C(=O)N[C@@H](CCCNC(=N)N)C(=O)N[C@@H](CCCNC(=N)N)C(=O)N[C@@H](C)C(=O)N[C@@H](CCCNC(=N)N)C(=O)N[C@@H](CC(N)=O)C(=O)NCC(=O)N[C@@H](C)C(=O)N[C@@H](CO)C(=O)N[C@@H](CCCNC(=N)N)C(=O)N[C@@H](CO)C(=O)O)[C@@H](C)O)C(C)C", "note": "[SYRAPRO-2000]", "values": [{"measurement": "effect on activity of protein phosphatase-1", "setting": "protein phosphatase-1", "result": "negligible effect"}, {"measurement": "cytotoxicity at 4 h, 1 µM", "setting": "[1]", "result": "~60", "unit": "%"}, {"measurement": "mode of cell death (phase contrast microscopy)", "setting": "Jurkat cells", "result": "oncolysis"}]}
